Source: article PMC5766581, “NF-κB inducing kinase is a therapeutic target for systemic lupus erythematosus” (Nature Communications, 2018)

How the values were obtained:
Assay in all cases: SelectScreen kinase panel
Assay type in all cases: biochemical
SRPK1 = biological target: T1, SRPK1 (Homo sapiens, UniProt Q96SB4)
T1 construct: purchased Invitrogen / ThermoFisher SelectScreen
Method: (§1) The ability of NIK to catalyze the hydrolysis of adenosine-5′-triphosphate (ATP) was monitored using the Transcreener ADP (adenosine-5′-diphosphate) assay (Bell Brook Labs, Fitchburg, WI). Purified human NIK kinase domain (a.a. 340–694) (0.5 nM) or mouse NIK kinase domain (a.a. 329–675) (1 nM) derived from a baculovirus-infected insect cell expression system was incubated with test compounds for 0.5–2 h in 50 mM HEPES buffer (pH 7.2) containing 10 mM MgCl2, 2 mM dithiothreitol, 10 μM ATP, 0.01% Triton X-100, 0.1% gamma-globulins from bovine blood, 1% dimethylsulfoxide (DMSO), 7 μg/mL ADP antibody and 5 nM ADP-MR121 633 tracer. Reactions were quenched by the addition of 20 mM EDTA and 0.01% Brij 35. The tracer bound to the antibody was displaced by the ADP generated during the NIK reaction, which caused a decrease in fluorescence polarization that was measured by laser excitation at 633 nm with a Fluorescence Correlation Spectroscopy Plus reader (Evotec AG). Equilibrium dissociation constant (Ki) values for NIK inhibitors are calculated from plots of activity vs. inhibitor concentration using Morrison’s quadratic equation that accounts for the potential of tight binding, and by also applying the conversion factor that accounted for competitive inhibition and the concentration of substrate used in the assay relative to its Michaelis constant (Km). The Ki values with hPKD1 (PKCμ) were determined using the same assay conditions as for NIK. Ki measurements for hKHS1 and hLRRK2, as well as broad kinase selectivity profiling for SMI1, were carried out by Invitrogen using their SelectScreen kinase assay panel (ThermoFisher Scientific, Madison, WI). The vendor offered two types of kinase activity assays, a peptide phosphorylation assay (Z′-LYTE) and an ADP quantitation assay (Adapta), as well as one type of kinase ATP site competitive binding assay (LanthaScreen). See vendor web site for technology and protocol details for each specific kinase assay.
(§2) The average % Inhibition of each kinase is reported (Supplementary Table 1).

MAPKAPK3 = biological target: T2, MAPKAPK3 (Homo sapiens, UniProt Q16644)
T2 construct: purchased Invitrogen / ThermoFisher SelectScreen
Method: as §1, §2

NEK6 = biological target: T3, NEK6 (Homo sapiens, UniProt Q9HC98)
T3 construct: purchased Invitrogen / ThermoFisher SelectScreen
Method: as §1, §2

Lyn = biological target: T4, Lyn (Homo sapiens, UniProt P07948)
T4 construct: purchased Invitrogen / ThermoFisher SelectScreen
Method: as §1, §2

NEK1 = biological target: T5, NEK1 (Homo sapiens, UniProt Q96PY6)
T5 construct: purchased Invitrogen / ThermoFisher SelectScreen
Method: as §1, §2

Fgr = biological target: T6, Fgr (Homo sapiens, UniProt P09769)
T6 construct: purchased Invitrogen / ThermoFisher SelectScreen
Method: as §1, §2

IGF1R = biological target: T7, IGF1R (Homo sapiens, UniProt P08069)
T7 construct: purchased Invitrogen / ThermoFisher SelectScreen
Method: as §1, §2

JAK3 = biological target: T8, JAK3 (Homo sapiens, UniProt P52333)
T8 construct: purchased Invitrogen / ThermoFisher SelectScreen
Method: as §1, §2

PLK2 = biological target: T9, PLK2 (Homo sapiens, UniProt Q9NYY3)
T9 construct: purchased Invitrogen / ThermoFisher SelectScreen
Method: as §1, §2

TSSK1 = biological target: T10, TSSK1 (Homo sapiens, UniProt Q9BXA7)
T10 construct: purchased Invitrogen / ThermoFisher SelectScreen
Method: as §1, §2

EphA7 = biological target: T11, EphA7 (Homo sapiens, UniProt Q15375)
T11 construct: purchased Invitrogen / ThermoFisher SelectScreen
Method: as §1, §2

ACVR1B = biological target: T12, ACVR1B (Homo sapiens, UniProt P36896)
T12 construct: purchased Invitrogen / ThermoFisher SelectScreen
Method: as §1, §2

GRK2 = biological target: T13, GRK2 (Homo sapiens, UniProt P25098)
T13 construct: purchased Invitrogen / ThermoFisher SelectScreen
Method: as §1, §2

CaMKII_beta = biological target: T14, CaMKII_beta (Homo sapiens, UniProt Q13554)
T14 construct: purchased Invitrogen / ThermoFisher SelectScreen
Method: as §1, §2

CDK9/cyclinT1 = biological target: T15, CDK9/cyclinT1 (Homo sapiens, UniProt P50750)
T15 construct: purchased Invitrogen / ThermoFisher SelectScreen
Method: as §1, §2

PKG1_alpha = biological target: T16, PKG1_alpha (Homo sapiens, UniProt Q13976)
T16 construct: purchased Invitrogen / ThermoFisher SelectScreen
Method: as §1, §2

MAPKAPK2 = biological target: T17, MAPKAPK2 (Homo sapiens, UniProt P49137)
T17 construct: purchased Invitrogen / ThermoFisher SelectScreen
Method: as §1, §2

PKC_eta = biological target: T18, PKC_eta (Homo sapiens, UniProt P24723)
T18 construct: purchased Invitrogen / ThermoFisher SelectScreen
Method: as §1, §2

PLK3 = biological target: T19, PLK3 (Homo sapiens, UniProt Q9H4B4)
T19 construct: purchased Invitrogen / ThermoFisher SelectScreen
Method: as §1, §2

PRKAA1 = biological target: T20, PRKAA1 (Homo sapiens, UniProt Q13131)
T20 construct: purchased Invitrogen / ThermoFisher SelectScreen
Method: as §1, §2

Ros = biological target: T21, Ros (Homo sapiens, UniProt P08922)
T21 construct: purchased Invitrogen / ThermoFisher SelectScreen
Method: as §1, §2

PDGFR_alpha = biological target: T22, PDGFR_alpha (Homo sapiens, UniProt P16234)
T22 construct: purchased Invitrogen / ThermoFisher SelectScreen
Method: as §1, §2

Aurora_B = biological target: T23, Aurora_B (Homo sapiens, UniProt Q96GD4)
T23 construct: purchased Invitrogen / ThermoFisher SelectScreen
Method: as §1, §2

MELK = biological target: T24, MELK (Homo sapiens, UniProt Q14680)
T24 construct: purchased Invitrogen / ThermoFisher SelectScreen
Method: as §1, §2

CLK2 = biological target: T25, CLK2 (Homo sapiens, UniProt P49760)
T25 construct: purchased Invitrogen / ThermoFisher SelectScreen
Method: as §1, §2

MKNK1 = biological target: T26, MKNK1 (Homo sapiens, UniProt Q9BUB5)
T26 construct: purchased Invitrogen / ThermoFisher SelectScreen
Method: as §1, §2

FGFR1 = biological target: T27, FGFR1 (Homo sapiens, UniProt P11362)
T27 construct: purchased Invitrogen / ThermoFisher SelectScreen
Method: as §1, §2

CK1_alpha1 = biological target: T28, CK1_alpha1 (Homo sapiens, UniProt P48729)
T28 construct: purchased Invitrogen / ThermoFisher SelectScreen
Method: as §1, §2

EGFR (T790M,L858R) = biological target: T29, EGFR (T790M,L858R) (Homo sapiens, UniProt P00533, L858R/T790M)
T29 construct: purchased Invitrogen / ThermoFisher SelectScreen
Method: as §1, §2

CK1_gamma1 = biological target: T30, CK1_gamma1 (Homo sapiens, UniProt Q9HCP0)
T30 construct: purchased Invitrogen / ThermoFisher SelectScreen
Method: as §1, §2

Srm = biological target: T31, Srm (Homo sapiens, UniProt Q9H3Y6)
T31 construct: purchased Invitrogen / ThermoFisher SelectScreen
Method: as §1, §2

BTK = biological target: T32, BTK (Homo sapiens, UniProt Q06187)
T32 construct: purchased Invitrogen / ThermoFisher SelectScreen
Method: as §1, §2

T7 sequence (P08069 31-1367): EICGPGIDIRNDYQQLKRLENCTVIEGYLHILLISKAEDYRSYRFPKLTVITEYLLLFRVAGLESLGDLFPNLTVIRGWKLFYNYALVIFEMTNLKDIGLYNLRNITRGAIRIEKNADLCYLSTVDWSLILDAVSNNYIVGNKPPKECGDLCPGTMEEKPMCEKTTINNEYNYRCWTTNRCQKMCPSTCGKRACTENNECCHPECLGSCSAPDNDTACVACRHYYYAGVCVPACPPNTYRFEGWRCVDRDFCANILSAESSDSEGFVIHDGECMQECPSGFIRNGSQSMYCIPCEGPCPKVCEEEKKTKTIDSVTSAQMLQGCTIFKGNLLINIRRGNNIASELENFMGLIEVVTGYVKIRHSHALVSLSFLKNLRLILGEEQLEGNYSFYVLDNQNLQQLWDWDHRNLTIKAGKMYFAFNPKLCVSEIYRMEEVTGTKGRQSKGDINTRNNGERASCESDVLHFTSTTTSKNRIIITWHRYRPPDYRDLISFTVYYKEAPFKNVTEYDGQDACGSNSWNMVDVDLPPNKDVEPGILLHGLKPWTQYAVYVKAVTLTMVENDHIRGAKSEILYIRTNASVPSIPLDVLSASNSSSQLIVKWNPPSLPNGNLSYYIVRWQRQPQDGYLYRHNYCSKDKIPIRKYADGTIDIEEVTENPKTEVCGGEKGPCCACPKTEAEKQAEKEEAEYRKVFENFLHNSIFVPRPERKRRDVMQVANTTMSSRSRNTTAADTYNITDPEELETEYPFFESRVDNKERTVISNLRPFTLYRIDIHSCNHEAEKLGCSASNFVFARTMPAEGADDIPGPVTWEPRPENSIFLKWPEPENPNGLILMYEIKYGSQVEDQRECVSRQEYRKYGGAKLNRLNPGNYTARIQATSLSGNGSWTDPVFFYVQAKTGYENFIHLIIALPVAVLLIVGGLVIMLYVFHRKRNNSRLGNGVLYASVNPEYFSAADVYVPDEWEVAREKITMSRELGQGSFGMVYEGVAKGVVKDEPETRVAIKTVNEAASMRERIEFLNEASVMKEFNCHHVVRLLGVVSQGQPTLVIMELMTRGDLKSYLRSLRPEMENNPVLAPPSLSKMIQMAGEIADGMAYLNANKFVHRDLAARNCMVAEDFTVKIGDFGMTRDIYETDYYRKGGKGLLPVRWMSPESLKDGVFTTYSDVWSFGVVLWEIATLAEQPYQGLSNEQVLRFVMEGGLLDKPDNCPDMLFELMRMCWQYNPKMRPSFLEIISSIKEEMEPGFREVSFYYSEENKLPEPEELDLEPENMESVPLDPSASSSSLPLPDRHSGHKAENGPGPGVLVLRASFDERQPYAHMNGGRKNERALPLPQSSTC
T5 sequence (Q96PY6 whole entry): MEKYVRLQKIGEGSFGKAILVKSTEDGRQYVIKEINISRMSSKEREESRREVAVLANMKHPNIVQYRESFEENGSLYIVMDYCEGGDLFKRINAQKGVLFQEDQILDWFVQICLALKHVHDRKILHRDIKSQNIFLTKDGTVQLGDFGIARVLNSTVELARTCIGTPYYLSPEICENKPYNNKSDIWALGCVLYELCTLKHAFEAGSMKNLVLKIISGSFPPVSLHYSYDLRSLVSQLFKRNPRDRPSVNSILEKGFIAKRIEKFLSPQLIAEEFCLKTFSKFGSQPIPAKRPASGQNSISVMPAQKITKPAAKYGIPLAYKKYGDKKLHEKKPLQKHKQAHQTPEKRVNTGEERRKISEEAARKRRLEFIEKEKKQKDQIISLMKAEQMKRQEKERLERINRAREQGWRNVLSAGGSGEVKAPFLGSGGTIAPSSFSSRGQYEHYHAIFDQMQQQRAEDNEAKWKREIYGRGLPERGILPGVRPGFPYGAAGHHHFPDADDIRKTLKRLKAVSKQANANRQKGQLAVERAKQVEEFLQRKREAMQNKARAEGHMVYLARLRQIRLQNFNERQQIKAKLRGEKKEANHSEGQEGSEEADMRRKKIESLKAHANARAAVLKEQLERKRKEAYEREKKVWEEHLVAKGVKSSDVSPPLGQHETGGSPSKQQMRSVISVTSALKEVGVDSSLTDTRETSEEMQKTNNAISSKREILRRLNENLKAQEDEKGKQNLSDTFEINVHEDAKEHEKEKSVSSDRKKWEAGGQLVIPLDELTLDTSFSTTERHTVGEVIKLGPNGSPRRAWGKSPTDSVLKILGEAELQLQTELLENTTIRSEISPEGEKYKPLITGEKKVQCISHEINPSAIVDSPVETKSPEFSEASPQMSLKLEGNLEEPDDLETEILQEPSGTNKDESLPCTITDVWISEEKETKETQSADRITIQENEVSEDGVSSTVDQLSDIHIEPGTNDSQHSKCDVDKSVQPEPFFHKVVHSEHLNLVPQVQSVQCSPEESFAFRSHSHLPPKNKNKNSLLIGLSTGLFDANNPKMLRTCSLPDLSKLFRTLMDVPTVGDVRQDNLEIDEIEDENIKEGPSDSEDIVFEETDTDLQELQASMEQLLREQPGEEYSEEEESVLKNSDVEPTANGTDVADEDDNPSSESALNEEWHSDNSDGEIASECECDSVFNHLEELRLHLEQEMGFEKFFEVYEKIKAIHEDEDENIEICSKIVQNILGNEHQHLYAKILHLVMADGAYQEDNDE
T11 sequence (Q15375 28-998): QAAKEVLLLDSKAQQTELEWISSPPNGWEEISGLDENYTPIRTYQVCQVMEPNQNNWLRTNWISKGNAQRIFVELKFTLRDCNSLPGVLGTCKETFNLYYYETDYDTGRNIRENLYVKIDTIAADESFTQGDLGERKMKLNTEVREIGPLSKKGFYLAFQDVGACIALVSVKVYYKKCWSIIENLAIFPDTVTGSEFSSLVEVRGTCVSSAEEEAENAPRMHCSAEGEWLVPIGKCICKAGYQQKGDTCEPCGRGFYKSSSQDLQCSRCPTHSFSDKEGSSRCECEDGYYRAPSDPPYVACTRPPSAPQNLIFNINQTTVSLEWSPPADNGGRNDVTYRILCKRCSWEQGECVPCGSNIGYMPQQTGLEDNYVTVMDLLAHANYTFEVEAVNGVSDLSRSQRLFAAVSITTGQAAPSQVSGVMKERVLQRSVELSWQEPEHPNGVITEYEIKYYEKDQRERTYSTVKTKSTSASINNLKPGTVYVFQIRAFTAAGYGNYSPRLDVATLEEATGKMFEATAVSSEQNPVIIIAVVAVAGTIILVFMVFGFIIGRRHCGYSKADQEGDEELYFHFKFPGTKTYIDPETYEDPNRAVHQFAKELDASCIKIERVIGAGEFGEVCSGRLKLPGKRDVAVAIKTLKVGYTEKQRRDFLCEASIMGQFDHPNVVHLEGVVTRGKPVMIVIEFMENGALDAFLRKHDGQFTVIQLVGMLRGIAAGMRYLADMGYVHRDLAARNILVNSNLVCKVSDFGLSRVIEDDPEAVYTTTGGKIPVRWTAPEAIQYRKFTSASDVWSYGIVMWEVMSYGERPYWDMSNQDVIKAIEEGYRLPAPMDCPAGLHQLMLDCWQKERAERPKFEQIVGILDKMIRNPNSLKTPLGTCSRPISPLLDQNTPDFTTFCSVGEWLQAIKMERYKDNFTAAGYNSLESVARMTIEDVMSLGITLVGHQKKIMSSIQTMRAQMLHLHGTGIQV
T8 sequence (P52333 whole entry): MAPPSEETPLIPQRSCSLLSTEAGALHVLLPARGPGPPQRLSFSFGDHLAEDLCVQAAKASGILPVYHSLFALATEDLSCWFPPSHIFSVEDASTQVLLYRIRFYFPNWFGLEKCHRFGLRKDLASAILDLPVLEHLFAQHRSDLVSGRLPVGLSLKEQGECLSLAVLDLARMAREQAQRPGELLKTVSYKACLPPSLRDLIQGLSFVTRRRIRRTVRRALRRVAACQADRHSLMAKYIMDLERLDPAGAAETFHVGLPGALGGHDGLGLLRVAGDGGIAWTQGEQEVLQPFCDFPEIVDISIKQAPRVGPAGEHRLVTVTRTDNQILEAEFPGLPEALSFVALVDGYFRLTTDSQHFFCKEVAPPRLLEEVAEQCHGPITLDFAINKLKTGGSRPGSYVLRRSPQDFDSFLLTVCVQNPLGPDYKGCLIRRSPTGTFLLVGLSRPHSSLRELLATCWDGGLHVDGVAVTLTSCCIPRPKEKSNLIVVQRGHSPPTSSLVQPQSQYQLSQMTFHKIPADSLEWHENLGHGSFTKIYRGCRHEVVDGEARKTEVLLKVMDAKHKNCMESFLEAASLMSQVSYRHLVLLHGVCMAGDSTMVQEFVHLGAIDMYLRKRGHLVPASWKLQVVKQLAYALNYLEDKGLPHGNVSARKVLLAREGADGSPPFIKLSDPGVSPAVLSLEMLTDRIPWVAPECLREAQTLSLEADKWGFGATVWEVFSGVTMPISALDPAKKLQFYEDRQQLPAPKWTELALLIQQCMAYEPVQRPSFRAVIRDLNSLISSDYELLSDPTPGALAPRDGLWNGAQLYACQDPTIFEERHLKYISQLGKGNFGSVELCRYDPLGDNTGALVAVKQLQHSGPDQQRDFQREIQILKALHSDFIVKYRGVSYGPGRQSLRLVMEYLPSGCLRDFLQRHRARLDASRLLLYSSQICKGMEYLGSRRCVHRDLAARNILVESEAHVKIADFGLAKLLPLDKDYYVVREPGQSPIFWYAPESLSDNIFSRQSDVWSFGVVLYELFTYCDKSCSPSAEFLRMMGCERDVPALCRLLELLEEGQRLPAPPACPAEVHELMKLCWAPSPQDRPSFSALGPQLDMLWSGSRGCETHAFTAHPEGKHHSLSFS
T2 sequence (Q16644 whole entry): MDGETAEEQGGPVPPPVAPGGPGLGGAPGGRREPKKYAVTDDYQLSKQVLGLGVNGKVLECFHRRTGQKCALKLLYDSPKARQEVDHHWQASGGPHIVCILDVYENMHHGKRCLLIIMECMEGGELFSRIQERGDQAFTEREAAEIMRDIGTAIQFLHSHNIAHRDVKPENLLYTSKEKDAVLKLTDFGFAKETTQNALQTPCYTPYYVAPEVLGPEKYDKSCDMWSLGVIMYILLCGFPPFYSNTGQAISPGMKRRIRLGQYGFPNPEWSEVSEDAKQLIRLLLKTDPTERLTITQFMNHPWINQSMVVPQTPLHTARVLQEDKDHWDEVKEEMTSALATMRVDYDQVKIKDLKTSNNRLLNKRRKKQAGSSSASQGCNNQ

COc1cc(C(N)=O)nc(-c2cccc(C#C[C@]3(O)CCN(C)C3=O)c2)c1 [NIK SMI1]
inhibition at 1 µM (SRPK1): 8.5%
inhibition at 1 µM (MAPKAPK3): 1%
inhibition at 1 µM (NEK6): 17%
inhibition at 1 µM (Lyn): 2.5%
inhibition at 1 µM (NEK1): 31.5%
inhibition at 1 µM (Fgr): 8%
inhibition at 1 µM (IGF1R): 8.5%
inhibition at 1 µM (JAK3): 15%
inhibition at 1 µM (PLK2): 4%
inhibition at 1 µM (TSSK1): 61%
inhibition at 1 µM (EphA7): 5.1%
inhibition at 1 µM (ACVR1B): 2%
inhibition at 1 µM (GRK2): 4.5%
inhibition at 1 µM (CaMKII_beta): 30.5%
inhibition at 1 µM (CDK9/cyclinT1): 15.3%
inhibition at 1 µM (PKG1_alpha): 14.5%
inhibition at 1 µM (MAPKAPK2): -5%
inhibition at 1 µM (PKC_eta): 38%
inhibition at 1 µM (PLK3): 9%
inhibition at 1 µM (PRKAA1): 20.5%
inhibition at 1 µM (Ros): 12.5%
inhibition at 1 µM (PDGFR_alpha): -4.5%
inhibition at 1 µM (Aurora_B): 24.5%
inhibition at 1 µM (MELK): 26.5%
inhibition at 1 µM (CLK2): 25%
inhibition at 1 µM (MKNK1): 2%
inhibition at 1 µM (FGFR1): -5.5%
inhibition at 1 µM (CK1_alpha1): 2%
inhibition at 1 µM (EGFR (T790M,L858R)): 9.5%
inhibition at 1 µM (CK1_gamma1): 2.5%
inhibition at 1 µM (Srm): 12%
inhibition at 1 µM (BTK): -3%
